Data on six molecules can be found in patent publication US8426397B2, “3 (3-pyrimidin-2-ylbenzyl)-1,2,4-triazolo[4,3-b]pyridazine derivatives” (Merck Patent Gesellschaft mit Beschränkter Haftung, priority 2008, dated 2013).

The target in experiment [1] is T1, Met kinase (Homo sapiens, UniProt P08581). Description: Met kinase inhibition (cell). It counts as cell-based.
Target sequence in this assay (P08581 25-1390): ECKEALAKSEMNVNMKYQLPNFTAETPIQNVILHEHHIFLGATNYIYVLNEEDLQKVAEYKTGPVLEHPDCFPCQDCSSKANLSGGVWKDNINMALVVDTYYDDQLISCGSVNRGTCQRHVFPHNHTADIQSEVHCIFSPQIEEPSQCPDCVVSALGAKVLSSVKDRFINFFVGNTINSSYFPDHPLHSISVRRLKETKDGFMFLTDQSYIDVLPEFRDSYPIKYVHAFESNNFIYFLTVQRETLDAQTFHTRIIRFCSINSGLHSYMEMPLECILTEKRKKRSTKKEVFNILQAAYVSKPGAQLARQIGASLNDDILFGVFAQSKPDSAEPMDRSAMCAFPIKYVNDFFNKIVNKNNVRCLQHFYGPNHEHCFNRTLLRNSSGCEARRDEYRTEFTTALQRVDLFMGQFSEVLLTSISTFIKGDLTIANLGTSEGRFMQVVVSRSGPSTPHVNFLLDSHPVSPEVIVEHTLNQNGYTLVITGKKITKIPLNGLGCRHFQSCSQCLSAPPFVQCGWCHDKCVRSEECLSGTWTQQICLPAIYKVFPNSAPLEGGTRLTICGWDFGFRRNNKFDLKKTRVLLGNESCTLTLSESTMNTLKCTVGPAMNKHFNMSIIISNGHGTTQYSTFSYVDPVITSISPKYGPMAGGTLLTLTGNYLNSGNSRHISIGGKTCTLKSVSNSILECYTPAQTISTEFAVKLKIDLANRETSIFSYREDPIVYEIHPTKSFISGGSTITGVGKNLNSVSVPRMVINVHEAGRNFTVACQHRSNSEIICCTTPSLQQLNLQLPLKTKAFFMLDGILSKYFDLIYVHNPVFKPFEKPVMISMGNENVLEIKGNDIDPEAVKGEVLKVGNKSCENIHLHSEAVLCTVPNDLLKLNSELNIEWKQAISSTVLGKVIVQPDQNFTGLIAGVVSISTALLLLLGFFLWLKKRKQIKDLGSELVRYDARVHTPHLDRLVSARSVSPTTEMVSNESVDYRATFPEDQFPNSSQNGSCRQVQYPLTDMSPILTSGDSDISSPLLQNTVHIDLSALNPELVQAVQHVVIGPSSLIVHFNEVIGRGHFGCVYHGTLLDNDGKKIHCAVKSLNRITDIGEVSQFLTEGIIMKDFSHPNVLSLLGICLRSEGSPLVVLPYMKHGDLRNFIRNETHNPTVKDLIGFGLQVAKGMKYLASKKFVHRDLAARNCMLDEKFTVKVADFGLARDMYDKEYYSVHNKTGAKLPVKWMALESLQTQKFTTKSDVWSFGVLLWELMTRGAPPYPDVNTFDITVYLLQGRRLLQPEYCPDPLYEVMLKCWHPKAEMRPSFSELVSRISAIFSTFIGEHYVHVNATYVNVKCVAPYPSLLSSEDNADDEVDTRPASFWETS
Experiment [2] concerns the target T1, Met kinase. In words: Met kinase flashplate method (enzyme). The experiment is classed as biochemical. Also noted: 6His (N); purchased Upstate 14-526; host or cells: Sf21 insect cells (S. frugiperda), baculovirus. The note with it: Met kinase inhibition. An excerpt: According to the manufacturer's data (Met, active, Upstate, catalogue No. 14-526), Met kinase is expressed for the purposes of protein production in insect cells (Sf21; S. frugiperda) and subsequent affinity-chromatographic purification as “N-terminal 6His-tagged” recombinant human protein in a baculovirus expression vector.
Flashplate Method (Met Kinase)
The test plates used are 96-well Flashplate® microtitre plates from Perkin Elmer (Cat. No. SMP200). The components of the kinase reaction described below are pipetted into the assay plate. The Met kinase and the substrate poly Ala-Glu-Lys-Tyr, (pAGLT, 6:2:5:1), are incubated for 3 hrs at room temperature with radioactively labelled ^33P-ATP in the presence and absence of test substances in a total volume of 100 μl. The reaction is terminated using 150 μl of a 60 mM EDTA solution. After incubation for a further 30 min at room temperature, the supernatants are filtered off with suction, and the wells are washed three times with 200 μl of 0.9% NaCl solution each time. The measurement of the bound radioactivity is carried out by means of a scintillation measuring instrument (Topcount NXT, Perkin-Elmer).
The full value used is the inhibitor-free kinase reaction. This should be approximately in the range 6000-9000 cpm. The pharmacological zero value used is staurosporin in a final concentration of 0.1 mM. The inhibitory values (IC50) are determined using the RS1_MTS program.
Kinase reaction conditions per well:
10 μl of substance to be tested in assay buffer with 10% of DMSO
10 μl of ATP (final concentration 1 μM cold, 0.35 μCi of ^33P-ATP)
50 μl of Met kinase/substrate mixture in assay buffer;
• (10 ng of enzyme/well, 50 ng of pAGLT/well) • Solutions used: • Assay buffer: • 50 mM HEPES • 3 mM magnesium chloride • 3 μM sodium orthovanadate • 3 mM manganese(II) chloride • 1 mM dithiothreitol (DTT) • pH=7.5 (to be set using sodium hydroxide) • Stop solution: • 60 mM Titriplex III (EDTA) • ^33P-ATP: Perkin-Elmer; • Met kinase: Upstate, Cat, No. 14-526, Stock 1 μg/10 μl; spec. activity 954 U/mg; • Poly-Ala-Glu-Lys-Tyr, 6:2:5:1: Sigma Cat. No. P1152 In-Vivo Tests
Target sequence in this assay (P08581 974-1390 limits assumed): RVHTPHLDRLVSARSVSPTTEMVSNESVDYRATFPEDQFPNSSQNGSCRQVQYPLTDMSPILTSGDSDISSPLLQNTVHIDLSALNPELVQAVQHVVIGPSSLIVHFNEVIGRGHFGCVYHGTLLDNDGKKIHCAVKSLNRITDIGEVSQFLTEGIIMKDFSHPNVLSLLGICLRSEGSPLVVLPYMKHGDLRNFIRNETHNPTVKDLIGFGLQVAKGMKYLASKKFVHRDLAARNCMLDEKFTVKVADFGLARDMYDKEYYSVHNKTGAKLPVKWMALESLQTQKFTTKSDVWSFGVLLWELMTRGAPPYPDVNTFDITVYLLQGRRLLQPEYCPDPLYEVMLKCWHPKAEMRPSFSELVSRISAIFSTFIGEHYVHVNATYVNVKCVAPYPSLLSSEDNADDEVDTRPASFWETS

pIC50: −log10 of the molar value.

With `COCCOc1cnc(-c2cccc(Cc3nnc4ccc(C(=O)NCCO)nn34)c2)nc1` [A41], the pIC50 is < 5.00 in experiment [1] and 7.00 to 9.00 in experiment [2].
The corresponding values for `CCCNC(=O)c1ccc2nnc(Cc3cccc(-c4ncc(OCCOC)cn4)c3)n2n1` [A39, N-propyl-3-{3-[5-(2-methoxyethoxy)pyrimidin-2-yl]benzyl}-1,2,4-triazolo[4,3-b]pyridazine-6-carboxamide] are 5.00 to 7.00 and 7.00 to 9.00.
The corresponding values for `CNC(=O)c1ccc2nnc(Cc3cccc(-c4ncc(OCCOC)cn4)c3)n2n1` [A28] are 5.00 to 7.00 and 7.00 to 9.00.
Take `COCCOc1cnc(-c2cccc(Cc3nnc4ccc(C(=O)N(C)C)nn34)c2)nc1` [A40]: the pIC50 in experiment [1] was 5.00 to 7.00; in experiment [2], 7.00 to 9.00.
On to `COc1ccc2nnc(C(F)(F)c3cccc(-c4ncc(-c5cnn(CCN6CCCC6)c5)cn4)c3)n2n1` [A20], for which the pIC50 in experiment [1] and in experiment [2] was 7.00 to 9.00 each time.
For the molecule `COCCOc1cnc(-c2cccc(Cc3nnc4ccc(C(=O)O)nn34)c2)nc1` [A38, 3-{3-[5-(2-methoxyethoxy)pyrimidin-2-yl]benzyl}-1,2,4-triazolo[4,3-b]pyridazine-6-carboxylic acid], the pIC50 in experiment [1] is 5.00 to 7.00; in experiment [2], 7.00 to 9.00.

A word on the pIC50: it is the negative decadic logarithm of the IC50, by convention in mol/L. High values mean a small IC50, low ones a large IC50.
